Data: patent publication US20120232062A1, “AZAINDAZOLES TO TREAT FLAVIVIRIDAE VIRUS INFECTION” (EIGER BIOPHARMACEUTICALS, INC., priority 2009, published 2012)

Each compound was assayed on HCV genotype 1b (assay: HCV 1b replicon luciferase assay). Conditions: Hepatitis C virus, Huh-7, 48 h, Table 1; Huh7 HCV 1b replicon, luciferase reporter, 48 hours; read-out: 1b EC50.
Format: cell-based
From the text: A suitable 1b HCV RNA replicon assay uses the Huh7 cell line which contains an HCV 1b RNA replicon with a stable luciferase (LUC) reporter. This construct contains modifications that make the cell line more robust and provides stable LUC expression for antiviral screening. The LUC reporter is used as an indirect measure of HCV replication. The activity of the LUC reporter is directly proportional to HCV RNA levels and positive control antiviral compounds behave comparably using LUC endpoints. […]
Fresh growth medium is prepared just before use. The container used in the procedure is a 10 cm diameter culture dish. HCV replicon reporter cell lines are used. Prepare complete medium: add FBS and appropriate additives as described in “Culture Media”, below. Pre-warm the medium in a 37° C. thermostat water bath. Remove the dish from a 37° C. CO2 incubator. Check the cell name and complete medium and passage number marked on the dish. Aspirate the medium carefully and add 1 ml PBS to rinse the cells. Remove and discard the solution and add 1 ml of 0.25% Trypsin/0.02% EDTA. Rinse the cells with the added Trypsin/EDTA to ensure all the cells have been rinsed. Remove the Trypsin/EDTA with a vacuum pump and incubate at 37° C. for 3-5 minutes. Examine the cell morphology under an inverted microscope to confirm that a single cell suspension is clearly visible. Add 3 ml of complete medium to the dish and suspend the cell by gentle pipetting. Count the cell numbers with a hematometer. Adjust cell density to 100 k/ml by adding appropriate volume of the complete medium. Add 100 μl of cell suspension to each well of a 96-well white plate; the cell density is thus 10 k per well. Mark the plate with cell name, passage number, seeding density, date and the name of the operator. Place the 96-well assay plate in 37° C. 5% CO2 incubator for 24 hours.
Compounds are prepared or provided at 25 mM in 100% DMSO. This is the compound stock solution. The dilution procedure should be performed in a cell culture hood. Dispense the stock solution into the second column of a 96-well plate. Prepare 9-step (10 concentrations total), 5-fold serial dilutions by transferring 10 μA of the compound into the next well containing 40 μA of DMSO. Repeat for all compounds. Aspirate 2 μl of the above compound solution from each well and add into 198 μl complete media using a 12-channel pipetter to obtain the 10-fold concentration compound solution with 1% DMSO, mix well.
Remove the 96-well assay plate from the 37° C./5% CO2 incubator, examine the cell morphology under an inverted microscope. In a cell culture hood, add 10 μl of the 10× concentration compounds solution into each well on the 96-well assay plate. All compound's dose responses are done in duplicate. The starting final concentration of the compounds is 25 μM, and DMSO final concentration 0.1%. Mark the plate with compound code(s) and concentrations. Place the 96-well assay plate into CO2 incubator for 48 hours. Add 30 μl of Stead-Glo Luciferase System (Promega) reagent to each well and mix by gentle shaking on a plate shaker for 5 minutes to allow throughout cell lysis. Measure the luminescence with Envision (Perkin Elmer) with an integration time of 2 seconds. Record and analyze the data.
The cell culture media is DMEM complete: DMEM (Life Technologies #41965-039) supplemented with 10% FCS, 2 mM Glutamin (Life Technologies #25030-024), Penicillin (100 IU/ml)/Streptomycin (100 μg/ml) (Life Technologies #15140-114) and 1× nonessential amino acids (Life Technologies #11140-035). G418 (“Geneticin”, Life Technologies): concentrations are given as weight per volume of the original substance. Specific activity of a typical batch is ca. 700 μg/mg as stated by the manufacturer. […] Therefore each new batch of G418 should be tested individually e.g. in an electroporation experiment using different selection conditions (0.2-1 mg/ml).

Point of comparison: `CCC(CC)Oc1ccc2c(NC(=O)C3CCCNC3)nn(C)c2n1` (centres unmarked) [compound 938], EC50 8.2 µM. Against it:
- CCn1nc(C(=O)NC2CCNCC2)c2ccc(N3CCCCCC3)nc21 [compound 856] — 2.2-fold lower, 3.7 µM
- CC(C)n1nc(C(=O)NC2CCNCC2)c2ccc(N3CCCCCC3)nc21 [compound 857] — 2.6-fold lower, 3.1 µM
- CCCn1nc(C(=O)NC2CCNCC2)c2ccc(N3CCCCCC3)nc21 [compound 858] — 2.5-fold lower, 3.3 µM
- CCC(CC)n1nc(C(=O)NC2CCNCC2)c2ccc(N3CCCCCC3)nc21 [compound 859] — 2.9-fold lower, 2.8 µM
- CCN(CC)c1ccc2c(C(=O)NC3CCNCC3)nn(C)c2n1 [compound 860] — 2.8-fold lower, 2.9 µM
- Cn1nc(C(=O)NC2CCNCC2)c2ccc(N3CCCCC3)nc21 [compound 861] — within 1.5-fold, 7.3 µM
- Cn1nc(C(=O)NC2CCNCC2)c2ccc(NC3CCCCC3)nc21 [compound 862] — 3.2-fold lower, 2.6 µM
- Cn1nc(C(=O)NC2CCNCC2)c2ccc(NCC3CCCCC3)nc21 [compound 863] — 6.3-fold lower, 1.3 µM
- Cn1nc(C(=O)NC2CCNCC2)c2ccc(NC3CCCCCC3)nc21 [compound 866] — 7.5-fold lower, 1.1 µM
- CN(CC1CCCCC1)c1ccc2c(C(=O)NC3CCNCC3)nn(C)c2n1 [compound 867] — 8.8-fold lower, 0.934 µM
- Cn1nc(C(=O)NC2CCNCC2)c2ccc(N3CCC(Cc4ccccc4)CC3)nc21 [compound 868] — 3.4-fold lower, 2.4 µM
- Cn1nc(C(=O)NCC2CCCNC2)c2ccc(N3CCCCCC3)nc21 (centres unmarked) [compound 872] — within 1.5-fold, 8.1 µM
- Cn1nc(C(=O)NC2CCNCC2)c2ccc(OC3CCCCCC3)nc21 [compound 873] — 1.7-fold lower, 4.7 µM
- CC1CCC(Oc2ccc3c(C(=O)NC4CCNCC4)nn(C)c3n2)C(C(C)C)C1 (centres unmarked) [compound 874] — 4.8-fold lower, 1.7 µM
- O=C(NC1CCNCC1)c1nn2c3nc(ccc13)OC/C=C\CCCCC2 [compound 876] — within 1.5-fold, 7.5 µM
- O=C(NC1CCNCC1)c1nn2c3nc(ccc13)OC/C=C/CCCCC2 [compound 877] — 2.5-fold lower, 3.3 µM
- CC1CCCCC1Oc1ccc2c(C(=O)NC3CCNCC3)nn(C)c2n1 (centres unmarked) [compound 878] — 2.9-fold lower, 2.8 µM
- CC1CCC(Oc2ccc3c(C(=O)NC4CCNCC4)nn(C)c3n2)CC1 (centres unmarked) [compound 879] — 2.1-fold lower, 3.9 µM
- Cn1nc(C(=O)NC2CCNCC2)c2ccc(NC3CCCCCCC3)nc21 [compound 885] — 9.2-fold lower, 0.889 µM
- Cn1nc(C(=O)NC2CCNCC2)c2ccc(N3CCCCCCC3)nc21 [compound 886] — 10-fold lower, 0.798 µM
- CN(c1ccc2c(C(=O)NC3CCNCC3)nn(C)c2n1)C1CCCCCC1 [compound 891] — 7.5-fold lower, 1.1 µM
- CN(c1ccc2c(C(=O)NC3CCNCC3)nn(C)c2n1)C1CCCCC1 [compound 892] — 5.5-fold lower, 1.5 µM
- CN(c1ccc2c(C(=O)NC3CCNCC3)nn(C)c2n1)C1CCCCCCC1 [compound 893] — 7.5-fold lower, 1.1 µM
- Cn1nc(CN[C@H]2CCNC2)c2ccc(N3CCCCCC3)nc21 [compound 908] — within 1.5-fold, 8.7 µM
- CC1CC(NCc2nn(C)c3nc(N4CCCCCC4)ccc23)CCN1 (centres unmarked) [compound 909] — 2-fold lower, 4 µM
- CN1C2CCC1CC(NCc1nn(C)c3nc(N4CCCCCC4)ccc13)C2 (centres unmarked) [compound 910] — 2.1-fold lower, 3.9 µM
- Cn1nc(C(=O)NC2CCNCC2)c2ccc(OC3CCCC3)nc21 [compound 912] — within 1.5-fold, 6.9 µM
- CCC(CC)Oc1ccc2c(NC(=O)c3ccncc3)nn(C)c2n1 [compound 939] — 1.7-fold lower, 4.7 µM
- CCC(CC)Oc1ccc2c(NC(=O)c3ccccc3)nn(C)c2n1 [compound 942] — within 1.5-fold, 8.6 µM
- C[C@@H]1CCC[C@H]1Oc1ccc2c(C(=O)NC3CCNCC3)nn(C)c2n1 [compound 945] — 3.2-fold lower, 2.6 µM
- CC1CCC(Oc2ccc3c(C(=O)NC4CCNCC4)nn(C)c3n2)C1 (centres unmarked) [compound 946] — 2.2-fold lower, 3.7 µM
- CCC(CC)Oc1ccc2c(NC(=O)[C@H]3CC[C@H](N)CC3)nn(C)c2n1 [compound 949] — within 1.5-fold, 5.7 µM
- CCC(CC)Oc1ccc2c(NC(=O)C3CC(C)(C)NC(C)(C)C3)nn(C)c2n1 [compound 950] — within 1.5-fold, 7.9 µM
- CCC(CC)Oc1ccc2c(NC(=O)[C@H]3CC[C@@H](N)CC3)nn(C)c2n1 [compound 951] — within 1.5-fold, 7.8 µM
- CCC(CC)Oc1ccc2c(NC(=O)CC3CCCNC3)nn(C)c2n1 (centres unmarked) [compound 952] — within 1.5-fold, 10 µM
- CCC(CC)Oc1ccc2c(NC(=O)CC3CCNCC3)nn(C)c2n1 [compound 953] — within 1.5-fold, 6.4 µM
- Cn1nc(C(=O)NC2CCNCC2)c2ccc(Oc3ccccc3)nc21 [compound 955] — 2.4-fold lower, 3.4 µM
- CCC(CC)Oc1ccc2c(NC(=O)C3CCNCC3)nn(C)c2n1 [compound 962] — 1.9-fold lower, 4.4 µM
- Cn1nc(C(=O)NC2CCNCC2)c2ccc(OCc3ccccc3-c3ccccc3)nc21 [compound 969] — 6.3-fold lower, 1.3 µM
- Cn1nc(C(=O)NC2CCN(Cc3cccc(-c4ccccc4)c3)CC2)c2ccc(OCc3cccc(-c4ccccc4)c3)nc21 [compound 970] — within 1.5-fold, 8.9 µM
- Cn1nc(C(=O)NC2CCN(Cc3ccc(-c4ccccc4)cc3)CC2)c2ccc(O)nc21 [compound 972] — 2.2-fold lower, 3.7 µM
- Cn1nc(C(=O)NC2CCN(Cc3ccc(-c4ccccc4)cc3)CC2)c2ccc(OCc3ccc(-c4ccccc4)cc3)nc21 [compound 973] — 1.5-fold lower, 5.4 µM
- Cn1nc(C(=O)NC2CCNCC2)c2ccc(OCc3ccc(-c4ccccc4)cc3)nc21 [compound 974] — 1.8-fold lower, 4.5 µM
- Cn1nc(CNC2CCNCC2)c2ccc(N3CCCCCC3)nc21 [compound 976] — 1.7-fold lower, 4.7 µM
- Cn1nc(C(=O)N[C@@H]2C[C@H]3CC[C@@H](C2)N3)c2ccc(N3CCCCCC3)nc21 [compound 979] — 1.7-fold lower, 4.9 µM
- Cn1nc(C(=O)N[C@H]2C[C@H]3CC[C@@H](C2)N3)c2ccc(N3CCCCCC3)nc21 [compound 984] — 3.7-fold lower, 2.2 µM
- Cn1nc(COCC2CCNCC2)c2ccc(N3CCCCCC3)nc21 [compound 985] — within 1.5-fold, 7.6 µM
- Cn1nc(COCC2CCCNC2)c2ccc(N3CCCCCC3)nc21 (centres unmarked) [compound 986] — within 1.5-fold, 7.9 µM
- O=C(NC1CCNCC1)c1nn(S(=O)(=O)C2CCCCC2)c2nc(N3CCCCCC3)ccc12 [compound 988] — 1.5-fold lower, 5.4 µM
- Cn1nc(C(=O)NC2CCNCC2)c2cc(NC3CCCCC3)cnc21 [compound 991] — within 1.5-fold, 9 µM
- Cn1nc(C(=O)NC2CCNCC2)c2ccc(N3CCCC(c4ccccc4)CC3)nc21 (centres unmarked) [compound 1026] — 5.1-fold lower, 1.6 µM
- Cn1nc(C(=O)NC2CCN(C(=O)C3CCCCC3)CC2)c2ccc(N3CCCCCC3)nc21 [compound 1030] — 1.7-fold lower, 4.8 µM
- Cn1nc(C(=O)NC2CCN(CCCC3CCCCC3)CC2)c2ccc(N3CCCCCC3)nc21 [compound 1031] — 12-fold lower, 0.69 µM
- Cn1nc(NC(=O)C2CCNCC2)c2ccc(N3CCCCCC3)nc21 [compound 1035] — within 1.5-fold, 5.7 µM
- Cn1nc(NC(=O)C2CCCNC2)c2ccc(N3CCCCCC3)nc21 (centres unmarked) [compound 1036] — within 1.5-fold, 8.7 µM
- Cn1nc(C(=O)NC2CCN(Cc3ccccc3Cl)CC2)c2ccc(N3CCCCCC3)nc21 [compound 1037] — 2.4-fold lower, 3.4 µM
- Cn1nc(C(=O)NC2CCN(Cc3cccc(Cl)c3)CC2)c2ccc(N3CCCCCC3)nc21 [compound 1038] — 2.4-fold lower, 3.4 µM
- Cn1nc(C(=O)NC2CCN(C3CCCC3)CC2)c2ccc(N3CCCCCC3)nc21 [compound 1040] — 2.9-fold lower, 2.8 µM
- Cn1nc(C(=O)NC2CCN(CCCN3CCCCC3)CC2)c2ccc(N3CCCCCC3)nc21 [compound 1041] — 7.5-fold lower, 1.1 µM

Same assay, conditions: Table 1; Huh7 HCV 1b replicon, luciferase reporter, 48 hours; read-out: 1b EC50

Point of comparison: `Cc1ccc(CN2CCC(NC(=O)c3nn(C)c4nc(N5CCCCCC5)ccc34)CC2)cc1` [compound 1039], EC50 2.6 µM. Against it:
- Cn1nc(C(=O)NC2CC3CCCC(C2)N3)c2ccc(N3CCCCCC3)nc21 (centres unmarked) [compound 880] — 3.1-fold higher, 8.1 µM
- Cn1nc(C(=O)NC2CCNCC2)c2ccc(OC3CCCCC3)nc21 [compound 913] — 1.8-fold higher, 4.7 µM
- CCC(CC)Oc1ccc2c(NC(=O)c3ccc(C)s3)nn(C)c2n1 [compound 956] — 8.1-fold higher, 21 µM
- CCC(CC)Oc1ccc2c(NC(=O)c3ccc(C)s3)nn(C)c2n1 [compound 963] — within 1.5-fold, 2.7 µM
